Data reported in US9630931B2, “Pharmaceutically active pyrazine derivatives” (Sentinel Oncology Limited, priority 2011, dated 2017).
Counter-ions that a name gives are not always drawn.

Assays:
Chk-1 kinase = Chk-1 kinase (Homo sapiens (Human), UniProt O14757); experiment: Chk-1 kinase inhibiting activity (33P-ATP radiometric filter assay, CHKtide substrate); format: biochemical; settings: recombinant full length GST-tagged CHK-1 0.5 nM, CHKtide 20 μM, 120 minutes at room temperature; read-out: IC50 against Chk-1 kinase
Experimental: The compounds of the invention were tested for activity against Chk-1 kinase using the materials and protocols set out below.
Base Reaction buffer: 20 mM Hepes (pH 7.5), 10 mM MgCl2, 1 mM EGTA, 0.02% Brij35, 0.02 mg/ml BSA, 0.1 mM Na3VO4, 2 mM DTT, 1% DMSO
Required cofactors are added individually to each kinase reaction
(i) Prepare indicated substrate in freshly prepared Base Reaction Buffer
(ii) Deliver any required cofactors to the substrate solution above
(iii) Deliver indicated kinase into the substrate solution and gently mix
(iv) Deliver compounds in DMSO into the kinase reaction mixture
(v) Deliver ^33P-ATP (specific activity 0.01 μCi/μl final) into the reaction mixture to initiate the reaction.
(vi) Incubate kinase reaction for 120 minutes at room temperature
(vii) Reactions are spotted onto P81 ion exchange paper (Whatman #3698-915)
(viii) Wash filters extensively in 0.1% phosphoric acid.
(ix) Dry filters and measure counts in scintillation counter
Recombinant full length construct, N-terminal GST tagged, purified from insect cells.
No special measures were taken to activate this kinase.
Final concentration in assay=0.5 nM
Peptide sequence: [[…]]
Final concentration in assay=20 μM
No additional cofactors are added to the reaction mixture
From the results obtained by following the above protocol, the IC50 values against Chk-1 kinase of a number of the compounds of the Examples were determined and these are shown in Table 3.

MV4-11 cells = experiment: Inhibition of cell growth in MV4-11 cells (Alamar blue, 72 h); format: cell-based; settings: Homo sapiens, 72 h incubation
Experimental: (§1) Studies were carried out to test the effect of compounds on the inhibition of cell growth in MOLM-13 and MV4-11 cells.
(§2) The following protocol was used:
(§3) (a) Cells were seeded in 96-well plates at cell densities of 2500/well (MOLM-13) and 10,000/well (MV4-11). Cells were then incubated overnight prior to addition of compound or vehicle control.
(§4) (b) Test compounds were prepared from 10 mM DMSO stocks to give a final concentration range of 10 μM, 3 μM, 1 μM, 0.3 μM, […], 0.03 μM, 0.01 μM, […] vehicle control. The DMSO content was constant at 0.1%.
(§5) (c) Test compounds were incubated with the cells for 72 h at 37° C. 5% CO2 in a humidified atmosphere.
(§6) (d) Alamar blue 10% (v/v) was then added and incubated for a further 4 h, and fluorescent product detected using the BMG FLUOstar plate reader.
(§7) (e) Media only background values were subtracted and the data analysed using a 4-parameter logistic equation in GraphPad Prism.

MOLM-13 cells = experiment: Inhibition of cell growth in MOLM-13 cells (Alamar blue, 72 h); format: cell-based; settings: Homo sapiens, 72 h incubation
Experimental: as §1, §2, §3, §4, §5, §6, §7

Sequence of Chk-1 kinase (O14757 whole entry): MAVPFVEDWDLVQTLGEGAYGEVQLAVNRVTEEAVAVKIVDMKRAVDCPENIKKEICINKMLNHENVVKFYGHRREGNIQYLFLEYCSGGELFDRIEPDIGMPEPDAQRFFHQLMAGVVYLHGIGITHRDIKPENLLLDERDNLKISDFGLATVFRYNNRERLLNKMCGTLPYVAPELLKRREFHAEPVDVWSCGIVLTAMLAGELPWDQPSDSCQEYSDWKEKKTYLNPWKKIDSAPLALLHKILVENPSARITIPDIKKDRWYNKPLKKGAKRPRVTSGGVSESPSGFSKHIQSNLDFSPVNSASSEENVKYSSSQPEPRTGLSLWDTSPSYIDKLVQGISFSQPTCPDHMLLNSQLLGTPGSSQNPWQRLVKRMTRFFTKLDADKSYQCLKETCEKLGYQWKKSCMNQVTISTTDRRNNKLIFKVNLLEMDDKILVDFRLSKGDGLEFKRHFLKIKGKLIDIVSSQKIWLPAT

In the case of COc1cc(CCNCCN2CCN(C)CC2)c(Cl)cc1NC(=O)Nc1cnc(C#N)cn1 [Example 9, 1-(5-Chloro-2-methoxy-4-{2-[2-(4-methyl-piperazin-1-yl)-ethylamino]-ethyl}-phenyl)-3-(5-cyano-pyrazin-2-yl)-urea hydrochloride], the IC50 (Chk-1 kinase) is reported as 0.69 nM, the IC50 (MV4-11 cells) is reported as 56 nM and the IC50 (MOLM-13 cells) is reported as 29 nM.
CC(C)Oc1cc(CCN[C@@H](C)C(=O)N2CCOCC2)ccc1NC(=O)Nc1cnc(C#N)cn1 [Example 30, 1-(5-Cyano-pyrazin-2-yl)-3-{2-isopropoxy-4-[2-((S)-1-methyl-2-morpholin-4-yl-2-oxo-ethylamino)-ethyl]-phenyl}-urea hydrochloride] gave an IC50 (Chk-1 kinase) of 2.9 nM.
Molecule COc1cc(CCNCC(=O)N2CCOCC2)c(Cl)cc1NC(=O)Nc1cnc(C#N)cn1 [Example 19, 1-{5-Chloro-2-methoxy-4-[2-(2-morpholin-4-yl-2-oxo-ethylamino)-ethyl]-phenyl}-3-(5-cyano-pyrazin-2-yl)-urea hydrochloride] has an IC50 (Chk-1 kinase) of 1.9 nM and an IC50 (MV4-11 cells) of 481 nM.
COc1cc(CCNCC2CCNCC2)c(Cl)cc1NC(=O)Nc1cnc(C#N)cn1 [Example 1, 1-(5-Chloro-2-methoxy-4-{2-[(piperidin-4-ylmethyl)-amino]-ethyl}-phenyl)-3-(5-cyano-pyrazin-2-yl)-urea hydrochloride] showed an IC50 (Chk-1 kinase) of 0.1 nM, an IC50 (MV4-11 cells) of 386 nM and an IC50 (MOLM-13 cells) of 240 nM.
COc1cc(CCN[C@@H](C)CN2CCOCC2)ccc1NC(=O)Nc1cnc(C#N)cn1 [Example 23, 1-(5-Cyano-pyrazin-2-yl)-3-{2-methoxy-4-[2-((S)-1-methyl-2-morpholin-4-yl-ethylamino)-ethyl]-phenyl}-urea hydrochloride] gave an IC50 (Chk-1 kinase) of 19 nM and an IC50 (MV4-11 cells) of 4790 nM.
With COc1cc(CCN[C@@H](C)C2CCN(S(C)(=O)=O)CC2)c(Cl)cc1NC(=O)Nc1cnc(C#N)cn1 [Example 11, 1-(5-Chloro-4-{2-[(S)-1-(1-methanesulfonyl-piperidin-4-yl)-ethylamino]-ethyl}-2-methoxy-phenyl)-3-(5-cyano-pyrazin-2-yl)-urea hydrochloride] the IC50 (Chk-1 kinase) was 0.28 nM, the IC50 (MV4-11 cells) was 231 nM and the IC50 (MOLM-13 cells) was 59 nM.
COc1cc(CCNCC(=O)N2CCN(C)CC2)c(Cl)cc1NC(=O)Nc1cnc(C#N)cn1 [Example 26, 1-(5-Chloro-2-methoxy-4-{2-[2-(4-methyl-piperazin-1-yl)-2-oxo-ethylamino]-ethyl}-phenyl)-3-(5-cyano-pyrazin-2-yl)-urea hydrochloride] gave an IC50 (Chk-1 kinase) of 0.58 nM and an IC50 (MV4-11 cells) of 800 nM.
Molecule COc1cc(CCNC[C@H]2CN(C(=O)C3CC3)CCO2)ccc1NC(=O)Nc1cnc(C#N)cn1 [Example 21, 1-(5-Cyano-pyrazin-2-yl)-3-(4-{2-[((S)-4-cyclopropanecarbonyl-morpholin-2-ylmethyl)-amino]-ethyl}-2-methoxy-phenyl)-urea hydrochloride] has an IC50 (Chk-1 kinase) of 10 nM and an IC50 (MV4-11 cells) of 3760 nM.
In the case of COc1cc(OCCNCCN2CCOCC2)c(Cl)cc1NC(=O)Nc1cnc(C#N)cn1 [Example 25, 1-{5-Chloro-2-methoxy-4-[2-(2-morpholin-4-yl-ethylamino)-ethoxy]-phenyl}-3-(5-cyano-pyrazin-2-yl)-urea hydrochloride], the IC50 (Chk-1 kinase) is reported as 0.61 nM.
In the case of CC(C)Oc1cc(CCNC(=O)[C@H]2CNCCO2)c(Cl)cc1NC(=O)Nc1cnc(C#N)cn1 [Example 20, (R)-Morpholine-2-carboxylic acid (2-{2-chloro-4-[3-(5-cyano-pyrazin-2-yl)-ureido]-5-isopropoxy-phenyl}-ethyl)-amide hydrochloride], the IC50 (Chk-1 kinase) is reported as 7.1 nM.
COc1cc(CCN[C@@H](C)CN2CCOCC2)c(Cl)cc1NC(=O)Nc1cnc(C#N)cn1 [Example 18, 1-{5-Chloro-2-methoxy-4-[2-((S)-1-methyl-2-morpholin-4-yl-ethylamino)-ethyl]-phenyl}-3-(5-cyano-pyrazin-2-yl)-urea hydrochloride] was tested, and the IC50 (Chk-1 kinase) was 0.52 nM and the IC50 (MV4-11 cells) was 175 nM.
COc1cc(CCNC(=O)[C@H]2CNCCO2)c(Cl)cc1NC(=O)Nc1cnc(C#N)cn1 [Example 15, (R)-Morpholine-2-carboxylic acid (2-{2-chloro-4-[3-(5-cyano-pyrazin-2-yl)-ureido]-5-methoxy-phenyl}-ethyl)-amide hydrochloride] gave an IC50 (Chk-1 kinase) of 20 nM.
Work on CC(C)Oc1cc(CCNC(=O)CN2CCN(C)CC2)c(Cl)cc1NC(=O)Nc1cnc(C#N)cn1 [Example 22, N-(2-{2-Chloro-4-[3-(5-cyano-pyrazin-2-yl)-ureido]-5-isopropoxy-phenyl}-ethyl)-2-(4-methyl-piperazin-1-yl)-acetamide hydrochloride] yielded an IC50 (Chk-1 kinase) of 8.2 nM and an IC50 (MV4-11 cells) of 519 nM.
Work on COc1cc(CCN[C@@H](C)C(=O)N2CCOCC2)c(Cl)cc1NC(=O)Nc1cnc(C#N)cn1 [Example 28, 1-{5-Chloro-2-methoxy-4-[2-((S)-1-methyl-2-morpholin-4-yl-2-oxo-ethylamino)-ethyl]-phenyl}-3-(5-cyano-pyrazin-2-yl)-urea hydrochloride] yielded an IC50 (Chk-1 kinase) of 0.48 nM and an IC50 (MV4-11 cells) of 390 nM.
In the case of N#Cc1cnc(NC(=O)Nc2ccc(CCNCC3CCCCC3)c(Cl)c2)cn1 [Example 12, 1-{3-Chloro-4-[2-(cyclo-hexylmethyl-amino)-ethyl]-phenyl}-3-(5-cyano-pyrazin-2-yl)-urea hydrochloride], the IC50 (Chk-1 kinase) is reported as 30 nM, the IC50 (MV4-11 cells) is reported as 740 nM and the IC50 (MOLM-13 cells) is reported as 1600 nM.
With CC(C)Oc1cc(CCNCC(=O)N2CCOCC2)c(Cl)cc1NC(=O)Nc1cnc(C#N)cn1 [Example 27, 1-{5-Chloro-2-isopropoxy-4-[2-(2-morpholin-4-yl-2-oxo-ethylamino)-ethyl]-phenyl}-3-(5-cyano-pyrazin-2-yl)-urea hydrochloride] the IC50 (Chk-1 kinase) was 0.21 nM and the IC50 (MV4-11 cells) was 135 nM.
CC(C)Oc1cc(CCNCCN2CCOCC2)c(Cl)cc1NC(=O)Nc1cnc(C#N)cn1 [Example 8, 1-{5-Chloro-2-isopropoxy-4-[2-(2-morpholin-4-yl-ethylamino)-ethyl]-phenyl}-3-(5-cyano-pyrazin-2-yl)-urea hydrochloride] was tested, and the IC50 (Chk-1 kinase) was 0.75 nM, the IC50 (MV4-11 cells) was 38 nM and the IC50 (MOLM-13 cells) was 28 nM.
Work on COc1cc(CCNC[C@H]2CNCCO2)c(Cl)cc1NC(=O)Nc1cnc(C#N)cn1 [Example 4, 1-(5-Chloro-2-methoxy-4-{2-[((S)-1-morpholin-2-ylmethyl)-amino]-ethyl}-phenyl)-3-(5-cyano-pyrazin-2-yl)-urea hydrochloride] yielded an IC50 (Chk-1 kinase) of 0.05 nM, an IC50 (MV4-11 cells) of 111 nM and an IC50 (MOLM-13 cells) of 49 nM.
For COc1cc(CCNCC2CNCCO2)c(Cl)cc1NC(=O)Nc1cnc(C#N)cn1 (centres unmarked) [Example 2, 1-(5-Chloro-2-methoxy-4-{2-[(morpholin-2-ylmethyl)-amino]-ethyl}-phenyl)-3-(5-cyano-pyrazin-2-yl)-urea hydrochloride], the IC50 (Chk-1 kinase) was 0.09 nM, the IC50 (MV4-11 cells) was 209 nM and the IC50 (MOLM-13 cells) was 26 nM.
Work on COc1cc(CCN[C@H](C)CN2CCOCC2)c(Cl)cc1NC(=O)Nc1cnc(C#N)cn1 [Example 24, 1-{5-Chloro-2-methoxy-4-[2-((R)-1-methyl-2-morpholin-4-yl-ethylamino)-ethyl]-phenyl}-3-(5-cyano-pyrazin-2-yl)-urea hydrochloride] yielded an IC50 (Chk-1 kinase) of 1.1 nM.
Work on COc1cc(CCN[C@H](C)C2CCN(S(C)(=O)=O)CC2)c(Cl)cc1NC(=O)Nc1cnc(C#N)cn1 [Example 13, 1-(5-Chloro-4-{2-[(R)-1-(1-methanesulfonyl-piperidin-4-yl)-ethylamino]-ethyl}-2-methoxy-phenyl)-3-(5-cyano-pyrazin-2-yl)-urea hydrochloride] yielded an IC50 (Chk-1 kinase) of 0.27 nM.
COc1cc(CCNC(=O)CN2CCOCC2)c(Cl)cc1NC(=O)Nc1cnc(C#N)cn1 [Example 16, N-(2-{2-Chloro-4-[3-(5-cyano-pyrazin-2-yl)-ureido]-5-methoxy-phenyl}-ethyl)-2-morpholin-4-yl-acetamide hydrochloride] showed an IC50 (Chk-1 kinase) of 76 nM.
In the case of COc1cc(CCNC[C@H]2CN(C(=O)C3CC3)CCO2)c(Cl)cc1NC(=O)Nc1cnc(C#N)cn1 [Example 14, 1-(5-Chloro-4-{2-[((S)-4-cyclopropanecarbonyl-morpholin-2-ylmethyl)-amino]-ethyl}-2-methoxy-phenyl)-3-(5-cyano-pyrazin-2-yl)-urea hydrochloride], the IC50 (Chk-1 kinase) is reported as 0.4 nM and the IC50 (MV4-11 cells) is reported as 202 nM.
Work on COc1cc(CCNC(=O)CN2CCN(C)CC2)c(Cl)cc1NC(=O)Nc1cnc(C#N)cn1 [Example 17, N-(2-{2-Chloro-4-[3-(5-cyano-pyrazin-2-yl)-ureido]-5-methoxy-phenyl}-ethyl)-2-(4-methyl-piperazin-1-yl)-acetamide hydrochloride] yielded an IC50 (Chk-1 kinase) of 13 nM.
